Source: patent US5288872A, “Compounds for treatment of neurodegenerative diseases” (priority 1992, dated 1994)

Experiments:
[1] = system: synaptosomes from the striatal area of rat brain; assay: Dopamine release from striatal synaptosomes of rat brain; format: cell-based, rat (Sprague-Dawley); settings: read-out: Dopamine Release (percent release relative to S(-)nicotine)
Protocol: Dopamine release was measured by preparing synaptosomes from the striatal area of rat brain generally obtained from Sprague-Dawley rats according to the procedures set forth by Nagy, et al., J. Neurochem., Vol. 43, pp. 1114-1123 (1984). Striata from 4 rats were homogenized in 2 ml of 0.32M sucrose buffered with 5 mM HEPES (pH 7.5), using a glass-teflon tissue grinder. The homogenate was diluted to 5 ml with additional homogenization solution and centrifuged at 1000×g for 10 min. This procedure was repeated on the new pellet and the resulting supernatant was centrifuged at 12,000×g for 20 min. […] Using this method, 30 to 90 percent of the dopamine was taken up into the synaptosomes, as determined by scintillation counting following filtration through glass fiber filters soaked with 0.5 percent polyethyleneimine. […] After the addition of a 0.2 ml of a 20 μM solution of ligand, the perfusate was collected into scintillation vials at 1 min. intervals and the dopamine released was quantified by scintillation counting. Peaks of radioactivity released above background were summed and the average basal release during that time was subtracted from the total. Release was expressed as a percentage of release obtained with an equal concentration of S(-)nicotine.

[2] = target: nicotinic receptors; assay: Inhibition of L-[^3 H] nicotine binding to mouse brain membrane preparations; parameters: species or system mouse (DBA strain); settings: mouse brain membranes, 2 hr. incubation at 4° C., pH 7.5, racemic mixture of ligand
Protocol: Mice (DBA strain) were maintained on a 12 hour light/dark cycle and were allowed free access to water and food supplied by Wayne Lab Blox, Madison, Wis. Animals used in the present studies were 60 to 90 days of age and weighed 20 to 25 g. Brain membrane preparations were obtained from pooled brain tissue of both males and females.
Mice were killed by cervical dislocation. Brains were removed and placed on an ice-cold platform. […] Protein was determined by the method of Lowry, et al., J. Biol. Chem., Vol. 193, pp. 265-275 (1951), using bovine serum albumin as the standard.
The binding of L-[^3 H] nicotine was measured using a modification of the method of Romano, et al., Science, Vol. 210, pp. 647-650 (1980) as described previously by Marks, et al., Mol. Pharmacol., Vol. 30, pp. 427-436 (1986). The binding of L-[^3 H] nicotine was measured using a 2 hr. incubation at 4° C. […] Nonspecific binding was determined by inclusion of 10 μM nonradioactive nicotine in the incubations. The inhibition of L-[^3 H] nicotine binding by test compounds was determined by including one of eight different concentrations of the test compound in the incubation. […] Inhibition constants (Ki values) were calculated from the IC50 values using the method of Cheng, et al., Biochem. Pharmacol., Vol. 22, pp. 3099-3108 (1973).

| SMILES | Emax [1] | Ki [2] |
| --- | --- | --- |
| CC(=O)C1=CCC2CCC1N2C (stereo not shown) [Ferruginine, ferruginine] | 15% | 3100 ± 500 nM |
| CC(=O)C1=CCC2CCC1N2 (stereo not shown) [Norferruginine, norferruginine] | 25% | 1100 ± 300 nM |
